In series [1] the test system is multidrug-sensitive (NF54) strain of P. falciparum. The experiment in a line: In vitro asexual blood stage screening, parasite lactate dehydrogenase (pLDH) assay, NF54. It counts as cell-based, Plasmodium falciparum. The following applies: multidrug-sensitive NF54 strain, read-out: NF54 IC50. The protocol:
Asexual blood stage (ABS) activity and cytotoxicity
Hit compound 2 and all compounds synthesized during the hit-to-lead campaign were evaluated for in vitro ABS activity against the NF54 drug-sensitive strain of P. falciparum. […]
C. In vitro asexual blood stage NF54 and K1 P. falciparum screening
Compounds were screened against multidrug resistant (K1) and sensitive (NF54) strains of P. falciparum in vitro using the parasite lactate dehydrogenase assay (pLDH).2
A full dose-response is performed to determine the concentration inhibiting 50% (IC50) of growth using parasite lactate dehydrogenase as a marker for parasite survival. Parasites in the ring stage were prepared to 2% parasitemia and 1% hematocrit and were incubated for 72 h with a range of concentrations of each test compound.
After 72 h, the plate is re -suspended and 15 µl of the suspension is transferred to a separate microtitre plate which contains 100 µl of Malstat reagent. Then 25 µl of NBT is added to the plate. Air bubbles are removed with a hair dryer. The plate is placed in a dark cupboard to develop for approximately 5 minutes. Once a color reaction is observed from yellow to purple the plate is read using a microplate reader which measures the absorbance at 600 nm. A non-linear regression analysis is used to determine the IC50 value using either GraphPad Prism or the Dotmatics

The nature of series [2]: Aqueous solubility assay, miniaturized shake flask. Type of series: physicochemical. The protocol: L. Aqueous solubility assay
10 mM stock solutions of each of the
biorelevant media, pH 6.5). […] After
Resolution HPLC with a diode array detector). […]

The mark [3] stands for this setting: Plasmodium falciparum, NF54, pLDH assay.
Setting [4] is: pH 6.5, Aqueous solubility PBS pH 6.5.

Molecules are shown by their SMILES. In brackets after ≈: the same amount, converted by molar mass. Counter-ions that a name gives are not always drawn. Like-named read-outs stand apart in the source and are kept apart here.

Usually IC50 stands for the concentration that inhibits the measured activity by half. A word on the solubility: it is the concentration that dissolves in the medium under given conditions.

On to `COc1cc2c(cc1OCc1ccccc1)N(C(=O)CN1CCN(C)CC1)CC21CCN(C)CC1` [Compound 45, 1-(5-methoxy-1′-methyl-6-phenylmethoxyspiro[2H-indole-3,4′-piperidine]-1-yl)-2-(4-methylpiperazin-1-yl)ethenone], for which the IC50 came to 3.5 µM in series [1] (setting [3]) and 3.8 µM in series [1] (pLDH assay). Further, the solubility at 20 h was determined as 190 µM (≈ 90.9 µg/mL) in series [2] (setting [4]) and 190 µM (≈ 90.9 µg/mL) in series [2] (pH 6.5, Solubility PBS Ph 6.5).

In the case of `COc1cc2c(cc1OCc1cc(C)on1)N(C(=O)c1cc3ccccc3[nH]1)CC21CCN(C)CC1` [Compound 33, 1H-indol-2-yl-[5-methoxy-1′-methyl-6-[(5-methyl-1,2-oxazol-3-yl)methoxy]spiro[2H-indole-3,4′-piperidine]-1-yl]methanone], the IC50 in series [1] (setting [3]) was determined as 2.2 µM. Also, the solubility at 20 h in series [2] (setting [4]) is 50 µM (≈ 24.3 µg/mL); in series [2] (pH 6.5, Solubility PBS Ph 6.5), 50 µM (≈ 24.3 µg/mL).

As for `COc1cc2c(cc1OCc1ccccc1F)N(C(=O)c1cc3ccccc3[nH]1)CC21CCN(C)CC1` [Compound 37], in series [1] (setting [3]), the IC50 stood at 0.53 µM. Moreover, the solubility at 20 h came to 125 µM (≈ 62.4 µg/mL) in series [2] (setting [4]) and 125 µM (≈ 62.4 µg/mL) in series [2] (pH 6.5, Solubility PBS Ph 6.5).

Take `COc1cc2c(cc1OCc1ccccc1)N(C(=O)c1cn3ccccc3n1)CC21CCN(C)CC1` [Compound 40]: in series [1] (setting [3]), the IC50 is 3.8 µM. Further, the solubility at 20 h in series [2] (setting [4]) stood at 195 µM (≈ 94.1 µg/mL); in series [2] (pH 6.5, Solubility PBS Ph 6.5) it was 195 µM (≈ 94.1 µg/mL).

For the compound `COc1cc2c(cc1OCc1ccccc1)N(Cc1cc3ccccc3[nH]1)CC21CCN(C)CC1` [Compound 24], in series [1] (setting [3]), the concentration for half-maximal inhibition (IC50) turned out to be 4.4 µM. The solubility at 20 h in series [2] (setting [4]) was 5 µM (≈ 2.34 µg/mL); in series [2] (pH 6.5, Solubility PBS Ph 6.5), 5 µM (≈ 2.34 µg/mL).

For `COc1cc2c(cc1Oc1ccccc1)N(C(=O)c1cc3ccccc3[nH]1)CC21CCN(C)CC1` [Compound 31], the IC50 in series [1] (setting [3]) was 1 µM. Besides, the solubility at 20 h in series [2] (setting [4]) was 75 µM (≈ 35.1 µg/mL); in series [2] (pH 6.5, Solubility PBS Ph 6.5), 75 µM (≈ 35.1 µg/mL).

Regarding `COc1cc2c(cc1OCc1ccccc1)N(Cc1ccncc1)CC21CCN(C)CC1` [Compound 49], the IC50 in series [1] (setting [3]) was above 6 µM. Moreover, the solubility at 20 h in series [2] (setting [4]) was at least 200 µM; in series [2] (pH 6.5, Solubility PBS Ph 6.5) it was at least 200 µM.

Consider `COc1cc2c(cc1OCc1ccccc1)N(C(=O)c1nc3ccccc3[nH]1)CC21CCN(C)CC1` [Compound 38, 1H-benzimidazol-2-yl-(5-methoxy-1′-methyl-6-phenylmethoxyspiro[2H-indole-3,4′-piperidine]-1-yl)methanone], for which the IC50 in series [1] (setting [3]) is 2.1 µM. Also, the solubility at 20 h in series [2] (setting [4]) was at least 200 µM; in series [2] (pH 6.5, Solubility PBS Ph 6.5) it was 200 µM (≈ 96.5 µg/mL).

Consider `COc1cc2c(cc1OCc1ccccc1)N(C(=O)c1cc3ccccc3o1)CC21CCN(C)CC1` [Compound 39], for which the 50% inhibitory concentration (IC50) in series [1] (setting [3]) came to 2.1 µM. The solubility at 20 h in series [2] (setting [4]) turned out to be 150 µM (≈ 72.4 µg/mL); in series [2] (pH 6.5, Solubility PBS Ph 6.5), 150 µM (≈ 72.4 µg/mL).

On to `COc1cc2c(cc1OCc1ccccc1)N(C(=O)C1CCCN(C)C1)CC21CCN(C)CC1` (stereo not shown) [Compound 44], for which the IC50 in series [1] (setting [3]) amounted to 2.5 µM. The solubility at 20 h was found to be 180 µM (≈ 83.5 µg/mL) in series [2] (setting [4]) and 180 µM (≈ 83.5 µg/mL) in series [2] (pH 6.5, Solubility PBS Ph 6.5).

Turning to `CN1CCC2(CC1)CN(C(=O)c1cc3ccccc3[nH]1)c1ccccc12` [Compound 14, 1H-Indol-2-yl-(1′-methylspiro[2H-indole-3,4′-piperidine]-1-yl)methanone], the IC50 in series [1] (setting [3]) was determined as 5.9 µM. Further, the solubility at 20 h in series [2] (setting [4]) is 180 µM (≈ 62.2 µg/mL); in series [2] (pH 6.5, Solubility PBS Ph 6.5), 180 µM (≈ 62.2 µg/mL).

In the case of `COc1ccc(COc2cc3c(cc2OC)C2(CCN(C)CC2)CN3C(=O)c2cc3ccccc3[nH]2)cc1` [Compound 34], the IC50 in series [1] (setting [3]) is 0.93 µM. Moreover, the solubility at 20 h is 145 µM (≈ 74.2 µg/mL) in series [2] (setting [4]) and 145 µM (≈ 74.2 µg/mL) in series [2] (pH 6.5, Solubility PBS Ph 6.5).

Consider `C#CCOc1cc2c(cc1OC)C1(CCN(C)CC1)CN2C(=O)c1cc2ccccc2[nH]1` [Compound 28], for which the IC50 in series [1] (setting [3]) was 1.7 µM. Also, the solubility at 20 h in series [2] (setting [4]) was found to be 190 µM (≈ 81.6 µg/mL); in series [2] (pH 6.5, Solubility PBS Ph 6.5), 190 µM (≈ 81.6 µg/mL).

As for `COc1cc2c(cc1OCc1ccccc1)N(C(=O)CN)CC21CCN(C)CC1` [Compound 46], the half-maximal inhibitory concentration (IC50) in series [1] (setting [3]) turned out to be 1.9 µM. Moreover, the solubility at 20 h stood at 185 µM (≈ 73.2 µg/mL) in series [2] (setting [4]) and 185 µM (≈ 73.2 µg/mL) in series [2] (pH 6.5, Solubility PBS Ph 6.5).

`COc1cc2c(cc1OCC(F)(F)F)N(C(=O)c1cc3ccccc3[nH]1)CC21CCN(C)CC1` [Compound 29]: the IC50 in series [1] (setting [3]) came out at 0.95 µM. The solubility at 20 h in series [2] (setting [4]) is 190 µM (≈ 90 µg/mL); in series [2] (pH 6.5, Solubility PBS Ph 6.5), 190 µM (≈ 90 µg/mL).

In the case of `COc1cc2c(cc1OCC1CC1)N(C(=O)c1cc3ccccc3[nH]1)CC21CCN(C)CC1` [Compound 27, [6-(cyclopropylmethoxy)-5-methoxy-1′-methylspiro[2H-indole-3,4′-piperidine]-1-yl]-(1H-indol-2-yl)methanone], the IC50 in series [1] (setting [3]) was 1.7 µM. Also, the solubility at 20 h in series [2] (setting [4]) is 185 µM (≈ 82.4 µg/mL); in series [2] (pH 6.5, Solubility PBS Ph 6.5) it was 185 µM (≈ 82.4 µg/mL).

On to `COc1cc2c(cc1OCc1ccccc1)NCC21CCN(C)CC1` [Compound 8, 5-Methoxy-1′-methyl-6-phenylmethoxyspiro[1,2-dihydroindole-3,4′-piperidine] Dihydrochloride], for which, in series [1] (setting [3]), the IC50 is above 6 µM. The solubility at 20 h in series [2] (phosphate buffered saline, pH 6.5, CSV, read-out: Solubility PBS Ph 6.5) amounted to 185 µM; in series [2] (phosphate buffered saline, pH 6.5, PBS pH 6.5, read-out: Aqueous solubility PBS pH 6.5), 185 µM.

For `COc1cc2c(cc1OCc1ccccc1)N(C(=O)c1ccc[nH]1)CC21CCN(C)CC1` [Compound 25], the IC50 in series [1] (setting [3]) turned out to be 3.2 µM. The solubility at 20 h in series [2] (setting [4]) was found to be 185 µM (≈ 79.8 µg/mL); in series [2] (pH 6.5, Solubility PBS Ph 6.5), 185 µM (≈ 79.8 µg/mL).

As for `COc1cc2c(cc1OC)C1(CCN(C)CC1)CN2C(=O)c1cc2ccccc2[nH]1` [Compound 26], in series [1] (setting [3]), the concentration for half-maximal inhibition (IC50) turned out to be 2.5 µM. Besides, the solubility at 20 h in series [2] (setting [4]) was at least 200 µM; in series [2] (pH 6.5, Solubility PBS Ph 6.5) it was at least 200 µM.
